organism: Homo sapiens; assay: Inhibition of carbonic anhydrase (unknown origin) relative to sulfanilamide

Point of comparison: `Cc1ccccc1S(N)(=O)=O`, fold change (FC) 1.8. Against it:
- NS(=O)(=O)c1ccccc1 — higher, 4
- NS(=O)(=O)c1ccc([N+](=O)[O-])cc1 — higher, 23
- Nc1cccc(S(N)(=O)=O)c1 — higher, 2.5
- NS(=O)(=O)c1ccc(Cl)cc1 — higher, 18
- Nc1ccc(S(N)(=O)=O)cc1 — lower, 1
